Source: ChEMBL document CHEMBL1201862, “PubChem BioAssay data set” (2004)
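48-hour exposure; five concentrations; linearly interpolated endpoints. GI50 = concentration required for 50% inhibition of growth.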 The source made the active and inactive calls. Rule as the data show it: active = GI50 up to about 1.1 µM and inactive = higher.

Legend:
Assay in all cases: inhibition of tumour cell growth, NCI panel, 48 h
[1] = test system: 786-0
[2] = test system: A498
[3] = test system: A549
[4] = test system: ACHN
[5] = test system: BT-549
[6] = test system: CAKI-1
[7] = test system: CCRF-CEM
[8] = test system: COLO 205
[9] = test system: DU-145
[10] = test system: EKVX
[11] = test system: HCC 2998
[12] = test system: HCT-116
[13] = test system: HCT-15
[14] = test system: HL-60
[15] = test system: HOP-62
[16] = test system: HOP-92
[17] = test system: HT-29
[18] = test system: Hs-578T
[19] = test system: IGROV-1
[20] = test system: K562
[21] = test system: KM12
[22] = test system: LOX IMVI
[23] = test system: M14
[24] = test system: MCF7
[25] = test system: MDA-MB-231
[26] = test system: MDA-MB-435
[27] = test system: MDA-N
[28] = test system: MOLT-4
[29] = test system: Malme-3M
[30] = test system: NCI-H226
[31] = test system: NCI-H23
[32] = test system: NCI-H460
[33] = test system: NCI-H522
[34] = test system: NCI/ADR-RES
[35] = test system: OVCAR-3
[36] = test system: OVCAR-4
[37] = test system: OVCAR-5
[38] = test system: OVCAR-8
[39] = test system: PC-3
[40] = test system: RPMI-8226
[41] = test system: RXF 393
[42] = test system: SF-268
[43] = test system: SF-295
[44] = test system: SF-539
[45] = test system: SK-MEL-28
[46] = test system: SK-MEL-2
[47] = test system: SK-MEL-5
[48] = test system: SK-OV-3
[49] = test system: SN12C
[50] = test system: SNB-19
[51] = test system: SNB-75
[52] = test system: SR
[53] = test system: SW-620
[54] = test system: T47D
[55] = test system: TK-10
[56] = test system: U-251
[57] = test system: UACC-257
[58] = test system: UACC-62
[59] = test system: UO-31

## CSc1ccc2c(cc1=O)[C@@H](NC(=O)c1ccc([N+](=O)[O-])cc1)CCc1cc(O)c(O)c(O)c1-2
[1]
  GI50: 29.8 µM (inactive)
[2]
  GI50: > 100 µM (inactive)
[3]
  GI50: 28.1 µM (inactive)
[4]
  GI50: 29.7 µM (inactive)
[5]
  GI50: 60.3 µM (inactive)
[6]
  GI50: 21.6 µM (inactive)
[7]
  GI50: 4.58 µM (inactive)
[8]
  GI50: 24.7 µM (inactive)
[9]
  GI50: > 100 µM (inactive)
[10]
  GI50: > 100 µM (inactive)
[11]
  GI50: > 100 µM (inactive)
[12]
  GI50: 34.8 µM (inactive)
[13]
  GI50: 30.4 µM
[14]
  GI50: 11.7 µM (inactive)
[15]
  GI50: 16.2 µM (inactive)
[16]
  GI50: > 100 µM (inactive)
[17]
  GI50: 17.8 µM (inactive)
[18]
  GI50: 21.2 µM (inactive)
[19]
  GI50: 35.4 µM (inactive)
[20]
  GI50: 18.4 µM (inactive)
[21]
  GI50: 17.7 µM (inactive)
[22]
  GI50: 34.8 µM (inactive)
[23]
  GI50: 30.5 µM (inactive)
[24]
  GI50: 31.8 µM (inactive)
[25]
  GI50: 28.2 µM (inactive)
[26]
  GI50: 16.6 µM (inactive)
[27]
  GI50: 22.4 µM (inactive)
[28]
  GI50: 30.6 µM (inactive)
[29]
  GI50: > 100 µM (inactive)
[30]
  GI50: 46.5 µM (inactive)
[31]
  GI50: 45.3 µM (inactive)
[32]
  GI50: 40 µM (inactive)
[33]
  GI50: 37.2 µM (inactive)
[34]
  GI50: 17.4 µM (inactive)
[35]
  GI50: 15.7 µM (inactive)
[36]
  GI50: 39.8 µM (inactive)
[37]
  GI50: > 100 µM (inactive)
[38]
  GI50: 32.1 µM (inactive)
[39]
  GI50: > 100 µM (inactive)
[40]
  GI50: 40.3 µM (inactive)
[41]
  GI50: > 100 µM (inactive)
[42]
  GI50: 59 µM (inactive)
[43]
  GI50: 32.8 µM (inactive)
[44]
  GI50: 28.8 µM (inactive)
[45]
  GI50: > 100 µM (inactive)
[46]
  GI50: > 100 µM (inactive)
[47]
  GI50: 18.7 µM (inactive)
[48]
  GI50: > 100 µM (inactive)
[49]
  GI50: 21.6 µM (inactive)
[50]
  GI50: 18.4 µM (inactive)
[51]
  GI50: > 100 µM (inactive)
[52]
  GI50: 3.99 µM (inactive)
[53]
  GI50: 43.6 µM (inactive)
[54]
  GI50: > 100 µM (inactive)
[55]
  GI50: > 100 µM (inactive)
[56]
  GI50: 34.2 µM (inactive)
[57]
  GI50: > 100 µM (inactive)
[58]
  GI50: 53.3 µM (inactive)
[59]
  GI50: 78.3 µM (inactive)
